Experimental data reported in ChEMBL document CHEMBL1201862, “PubChem BioAssay data set” (2004).
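Grown in 96-well plates, cells were treated for 48 hours with each compound at five concentrations. Insufficient inhibition: endpoint recorded as highest concentration tested. The concentration for 50% growth inhibition is given as GI50.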 Active and inactive are the calls of the source. Rule as the data show it: active = GI50 up to about 1.1 µM and inactive = higher.

How the values were obtained:
Test in all cases: growth of human tumour cells (NCI), 48 h
CAKI-1 = system: CAKI-1
COLO 205 = system: COLO 205
DU-145 = system: DU-145
HCT-15 = system: HCT-15
Hs-578T = system: Hs-578T
K562 = system: K562
KM12 = system: KM12
M14 = system: M14
MDA-MB-231 = system: MDA-MB-231
Malme-3M = system: Malme-3M
NCI/ADR-RES = system: NCI/ADR-RES
OVCAR-3 = system: OVCAR-3
PC-3 = system: PC-3
SF-268 = system: SF-268
SF-539 = system: SF-539
SK-MEL-28 = system: SK-MEL-28
SK-OV-3 = system: SK-OV-3
SN12C = system: SN12C
SW-620 = system: SW-620
UACC-62 = system: UACC-62

Compound	GI50 (CAKI-1)	GI50 (COLO 205)	GI50 (DU-145)	GI50 (HCT-15)	GI50 (Hs-578T)	GI50 (K562)	GI50 (KM12)	GI50 (M14)	GI50 (MDA-MB-231)	GI50 (Malme-3M)	GI50 (NCI/ADR-RES)	GI50 (OVCAR-3)	GI50 (PC-3)	GI50 (SF-268)	GI50 (SF-539)	GI50 (SK-MEL-28)	GI50 (SK-OV-3)	GI50 (SN12C)	GI50 (SW-620)	GI50 (UACC-62)
CCC1C(NC(=O)OC)C(=O)N1[C@@H](C)c1ccccc1 (stereo not given in full)	> 100 µM (inactive)	> 100 µM (inactive)	> 100 µM (inactive)	> 100 µM	> 100 µM (inactive)	> 100 µM (inactive)	> 100 µM (inactive)	> 100 µM (inactive)	> 100 µM (inactive)	> 100 µM (inactive)	> 100 µM (inactive)	> 100 µM (inactive)	> 100 µM (inactive)	> 100 µM (inactive)	> 100 µM (inactive)	> 100 µM (inactive)	> 100 µM (inactive)	> 100 µM (inactive)	> 100 µM (inactive)	> 100 µM (inactive)
CCN(CC)C(=O)CCNC(C)Cc1c[nH]c2ccccc12 (stereo not given)	> 100 µM (inactive)	> 100 µM (inactive)	> 100 µM (inactive)	> 100 µM	> 100 µM (inactive)	> 100 µM (inactive)	> 100 µM (inactive)	> 100 µM (inactive)	> 100 µM (inactive)	> 100 µM (inactive)	> 100 µM (inactive)	> 100 µM (inactive)	> 100 µM (inactive)	> 100 µM (inactive)	> 100 µM (inactive)	> 100 µM (inactive)	> 100 µM (inactive)	> 100 µM (inactive)	> 100 µM (inactive)	> 100 µM (inactive)
O=C1C(Cl)=C(N2CCC[C@@H]2CO)C(=O)c2c(O)ccc(O)c21	1.58 µM (inactive)	1.55 µM (inactive)	1.84 µM (inactive)	1.87 µM	2.06 µM (inactive)	0.347 µM (active)	1.75 µM (inactive)	1.67 µM (inactive)	2.02 µM (inactive)	1.64 µM (inactive)	2.41 µM (inactive)	1.67 µM (inactive)	1.91 µM (inactive)	1.29 µM (inactive)	1.92 µM (inactive)	1.82 µM (inactive)	2.9 µM (inactive)	1.79 µM (inactive)	1.4 µM (inactive)	1.36 µM (inactive)
CC12CP(=O)(O)CC1C2(Cl)Cl (stereo not given)	> 100 µM (inactive)	> 100 µM (inactive)	> 100 µM (inactive)	> 100 µM	> 100 µM (inactive)	> 100 µM (inactive)	> 100 µM (inactive)	> 100 µM (inactive)	> 100 µM (inactive)	> 100 µM (inactive)	> 100 µM (inactive)	> 100 µM (inactive)	> 100 µM (inactive)	> 100 µM (inactive)	> 100 µM (inactive)	> 100 µM (inactive)	> 100 µM (inactive)	> 100 µM (inactive)	> 100 µM (inactive)	> 100 µM (inactive)
O=C(COC(c1ccc(F)cc1)c1ccc(F)cc1)N1CCN(CCCc2ccccc2)CC1	2.05 µM (inactive)	1.79 µM (inactive)	4.44 µM (inactive)	3.75 µM	11.1 µM (inactive)	3.88 µM (inactive)	4.06 µM (inactive)	4.32 µM (inactive)	3.22 µM (inactive)	4.68 µM (inactive)	2.72 µM (inactive)	4.29 µM (inactive)	3.37 µM (inactive)	3.88 µM (inactive)	5.2 µM (inactive)	15.6 µM (inactive)	6.97 µM (inactive)	3.01 µM (inactive)	5.15 µM (inactive)	4.26 µM (inactive)
Cc1ccc(N)cc1.O=S(=O)(O)/C(=C\c1ccccc1)c1ccccc1	> 100 µM (inactive)	> 100 µM (inactive)	> 100 µM (inactive)	> 100 µM	> 100 µM (inactive)	> 100 µM (inactive)	71.8 µM (inactive)	> 100 µM (inactive)	> 100 µM (inactive)	> 100 µM (inactive)	> 100 µM (inactive)	> 100 µM (inactive)	> 100 µM (inactive)	> 100 µM (inactive)	> 100 µM (inactive)	> 100 µM (inactive)	> 100 µM (inactive)	> 100 µM (inactive)	> 100 µM (inactive)	44 µM (inactive)
CN(CCCNC(=O)c1nn(-c2ccc(Cl)cc2Cl)c2c1Cc1ccccc1-2)CCCNC(=O)c1nn(-c2ccc(Cl)cc2Cl)c2c1Cc1ccccc1-2	1.55 µM (inactive)	1.83 µM (inactive)	1.77 µM (inactive)	1.84 µM	2.74 µM (inactive)	0.944 µM (active)	2.37 µM (inactive)	1.8 µM (inactive)	1.87 µM (inactive)	1.78 µM (inactive)	1.87 µM (inactive)	1.73 µM (inactive)	1.73 µM (inactive)	1.96 µM (inactive)	1.19 µM (inactive)	1.69 µM (inactive)	1.78 µM (inactive)	1.67 µM (inactive)	1.48 µM (inactive)	1.57 µM (inactive)
COc1ccc(OC)c(CSc2ccc(OC)c(OC)c2)c1	> 100 µM (inactive)	> 100 µM (inactive)	> 100 µM (inactive)	> 73.8 µM	> 100 µM (inactive)	74.8 µM (inactive)	> 100 µM (inactive)	> 100 µM (inactive)	> 93.5 µM (inactive)	> 100 µM (inactive)	> 70.8 µM (inactive)	> 63.5 µM (inactive)	> 79.8 µM (inactive)	> 100 µM (inactive)	> 100 µM (inactive)	> 100 µM (inactive)	> 100 µM (inactive)	> 100 µM (inactive)	> 100 µM (inactive)	> 68.5 µM (inactive)
